Experimental data reported in ChEMBL document CHEMBL4732026, “Benzimidazole-1,2,3-triazole hybrid molecules: synthesis and study of their interaction with G-quadruplex DNA” (RSC Med Chem, 2021).
The source made the active and inactive calls. The rule behind the calls is not given here.

What was measured:
[1] = tested on: PC-3; test: Cytotoxicity against human PC3 cells assessed as reduction in cell viability measured after 72 hrs by MTT assay; type: functional, cell-based; conditions: PC-3, 72 h
[2] = tested on: B16-F10; test: Cytotoxicity against mouse B16-F10 cells assessed as reduction in cell viability measured after 72 hrs by MTT assay; type: functional, cell-based; conditions: B16-F10, 72 h
[3] = tested on: CHO-K1; test: Cytotoxicity against […] cells assessed as reduction in cell viability measured after 72 hrs by MTT assay; type: cell-based; conditions: Cricetulus griseus, CHO-K1, 72 h
[4] = target: Quadruplex DNA; test: Binding affinity to c-Myc G-quadruplex DNA (unknown origin) assessed as dissociation constant incubated for 5 mins by UV- vis spectrophotometric analysis; type: nucleic-acid assay
[5] = target: Quadruplex DNA; test: Binding affinity to Tel Q G-quadruplex DNA (unknown origin) assessed as dissociation constant incubated for 5 mins by UV- vis spectrophotometric analysis; type: nucleic-acid assay
[6] = target: dsDNA; test: Binding affinity to double strand DNA (unknown origin) assessed as dissociation constant incubated for 5 mins by UV- vis spectrophotometric analysis; type: nucleic-acid assay
[7] = tested on: Quadruplex DNA; test: Binding affinity to Tel Q G-quadruplex DNA (unknown origin) assessed as hypsochromic shift at 10.3 uM incubated for 5 mins by UV- vis spectrophotometric analysis; type: nucleic-acid assay
[8] = tested on: Quadruplex DNA; test: Binding affinity to c-Myc G-quadruplex DNA (unknown origin) assessed as hypsochromic shift at 10.3 uM incubated for 5 mins by UV- vis spectrophotometric analysis; type: nucleic-acid assay
[9] = tested on: dsDNA; test: Binding affinity to double strand DNA (unknown origin) assessed as hypsochromic shift at 10.3 uM incubated for 5 mins by UV- vis spectrophotometric analysis; type: nucleic-acid assay
[10] = tested on: Quadruplex DNA; test: Binding affinity to Tel Q G-quadruplex DNA (unknown origin) assessed as hyperchromicity at 10.3 uM incubated for 5 mins by UV- vis spectrophotometric analysis; type: nucleic-acid assay
[11] = tested on: Quadruplex DNA; test: Binding affinity to c-Myc G-quadruplex DNA (unknown origin) assessed as hyperchromicity at 10.3 uM incubated for 5 mins by UV- vis spectrophotometric analysis; type: nucleic-acid assay
[12] = tested on: dsDNA; test: Binding affinity to double strand DNA (unknown origin) assessed as hyperchromicity at 10.3 uM incubated for 5 mins by UV- vis spectrophotometric analysis; type: nucleic-acid assay
[13] = tested on: Quadruplex DNA; test: Stabilization of Tel Q G-quadruplex DNA (unknown origin) assessed as change in melting temperature at 10.3 uM incubated for 5 mins by UV-visible thermal denaturation study; type: nucleic-acid assay
[14] = tested on: Quadruplex DNA; test: Stabilization of c-Myc G-quadruplex DNA (unknown origin) assessed as change in melting temperature at 10.3 uM incubated for 5 mins by UV-visible thermal denaturation study; type: nucleic-acid assay
[15] = tested on: dsDNA; test: Stabilization of double strand DNA (unknown origin) assessed as change in melting temperature at 10.3 uM incubated for 5 mins by UV-visible thermal denaturation study; type: nucleic-acid assay
[16] = tested on: Quadruplex DNA; test: Binding affinity to Tel Q G-quadruplex DNA (unknown origin) assessed as increase in fluorescence intensity at 10.3 uM incubated for 5 mins by spectrofluorometric analysis; type: nucleic-acid assay
[17] = tested on: Quadruplex DNA; test: Binding affinity to c-Myc G-quadruplex DNA (unknown origin) assessed as increase in fluorescence intensity at 10.3 uM incubated for 5 mins by spectrofluorometric analysis; type: nucleic-acid assay
[18] = tested on: dsDNA; test: Binding affinity to double strand DNA (unknown origin) assessed as increase in fluorescence intensity at 10.3 uM incubated for 5 mins by spectrofluorometric analysis; type: nucleic-acid assay
[19] = tested on: Quadruplex DNA; test: Binding affinity to Tel Q G-quadruplex DNA (unknown origin) assessed as increase in fluorescence intensity at 8.5 uM incubated for 5 mins by spectrofluorometric analysis; type: nucleic-acid assay
[20] = tested on: Quadruplex DNA; test: Binding affinity to c-Myc G-quadruplex DNA (unknown origin) assessed as increase in fluorescence intensity at 8.5 uM incubated for 5 mins by spectrofluorometric analysis; type: nucleic-acid assay
[21] = tested on: dsDNA; test: Binding affinity to double strand DNA (unknown origin) assessed as increase in fluorescence intensity at 8.5 uM incubated for 5 mins by spectrofluorometric analysis; type: nucleic-acid assay
[22] = tested on: PC-3; test: Induction of apoptosis in human PC-3 cells assessed as viable cells at 91 uM after 48 hrs by Annexin V based flow cytometric analysis (reference value: 89.57%); type: functional; conditions: read-out: Activity
[23] = tested on: PC-3; test: Induction of apoptosis in human PC-3 cells assessed as necrotic cells at 91 uM after 48 hrs by Annexin V based flow cytometric analysis (reference value: 0.79%); type: functional
[24] = tested on: PC-3; test: Induction of apoptosis in human PC-3 cells assessed as late apoptic cells at 91 uM after 48 hrs by Annexin V based flow cytometric analysis (reference value: 9.24%); type: functional
[25] = tested on: PC-3; test: Induction of apoptosis in human PC-3 cells assessed as early apoptic cells at 91 uM after 48 hrs by Annexin V based flow cytometric analysis (reference value: 0.40%); type: functional
[26] = tested on: PC-3; test: Induction of apoptosis in human PC-3 cells assessed as apoptotic cells at 91 uM incubated for 48 hrs by AnnexinV based flow cytometric analysis (reference value: 10.43%); type: functional
[27] = tested on: PC-3; test: Induction of apoptosis in human PC-3 cells assessed as viable cells at 98 uM after 48 hrs by Annexin V based flow cytometric analysis (reference value: 89.57%); type: functional; conditions: read-out: Activity
[28] = tested on: PC-3; test: Induction of apoptosis in human PC-3 cells assessed as necrotic cells at 98 uM after 48 hrs by Annexin V based flow cytometric analysis (reference value: 0.79%); type: functional
[29] = tested on: PC-3; test: Induction of apoptosis in human PC-3 cells assessed as late apoptic cells at 98 uM after 48 hrs by Annexin V based flow cytometric analysis (reference value: 9.24%); type: functional
[30] = tested on: PC-3; test: Induction of apoptosis in human PC-3 cells assessed as early apoptic cells at 98 uM after 48 hrs by Annexin V based flow cytometric analysis (reference value: 0.40%); type: functional
[31] = tested on: PC-3; test: Induction of apoptosis in human PC-3 cells assessed as apoptotic cells at 98 uM incubated for 48 hrs by AnnexinV based flow cytometric analysis (reference value: 10.43%); type: functional
[32] = Induction of apoptosis in CHO-K1 cells assessed as viable cells at 60 uM after 48 hrs by Annexin V based flow cytometric analysis (reference value: 93.71%); type: cell-based, Cricetulus griseus; conditions: chinese hamster, read-out: Activity
[33] = tested on: CHO-K1; test: Induction of apoptosis in CHO-K1 cells assessed as necrotic cells at 60 uM after 48 hrs by Annexin V based flow cytometric analysis (reference value: 0.70%); type: cell-based, Cricetulus griseus; conditions: chinese hamster, cho-k1, 48 h
[34] = tested on: CHO-K1; test: Induction of apoptosis in CHO-K1 cells assessed as early apoptic cells at 60 uM after 48 hrs by Annexin V based flow cytometric analysis (reference value: 4.58%); type: cell-based, Cricetulus griseus; conditions: chinese hamster, cho-k1, 48 h
[35] = tested on: CHO-K1; test: Induction of apoptosis in CHO-K1 cells assessed as late apoptic cells at 60 uM after 48 hrs by Annexin V based flow cytometric analysis (reference value: 1.01%); type: cell-based, Cricetulus griseus; conditions: chinese hamster, cho-k1, 48 h
[36] = tested on: CHO-K1; test: Induction of apoptosis in CHO-K1 cells assessed as apoptic cells at 60 uM after 48 hrs by Annexin V based flow cytometric analysis (reference value: 6.29%); type: cell-based, Cricetulus griseus; conditions: chinese hamster, cho-k1, 48 h
[37] = Induction of apoptosis in CHO-K1 cells assessed as viable cells at 63 uM after 48 hrs by Annexin V based flow cytometric analysis (reference value: 93.71%); type: cell-based, Cricetulus griseus; conditions: chinese hamster, read-out: Activity
[38] = tested on: CHO-K1; test: Induction of apoptosis in CHO-K1 cells assessed as necrotic cells at 63 uM after 48 hrs by Annexin V based flow cytometric analysis (reference value: 0.70%); type: cell-based, Cricetulus griseus; conditions: chinese hamster, cho-k1, 48 h
[39] = tested on: CHO-K1; test: Induction of apoptosis in CHO-K1 cells assessed as early apoptic cells at 63 uM after 48 hrs by Annexin V based flow cytometric analysis (reference value: 4.58%); type: cell-based, Cricetulus griseus; conditions: chinese hamster, cho-k1, 48 h
[40] = tested on: CHO-K1; test: Induction of apoptosis in CHO-K1 cells assessed as late apoptic cells at 63 uM after 48 hrs by Annexin V based flow cytometric analysis (reference value: 1.01%); type: cell-based, Cricetulus griseus; conditions: chinese hamster, cho-k1, 48 h
[41] = tested on: CHO-K1; test: Induction of apoptosis in CHO-K1 cells assessed as apoptic cells at 63 uM after 48 hrs by Annexin V based flow cytometric analysis (reference value: 6.29%); type: cell-based, Cricetulus griseus; conditions: chinese hamster, cho-k1, 48 h
[42] = tested on: CHO-K1; test: Induction of reactive oxygen species generation in CHO-K1 cells after 48 hrs by DCFH-DA staining based flow cytometeric analysis; type: cell-based, Cricetulus griseus; conditions: chinese hamster, cho-k1, 48 h

## FC(F)Oc1ccc2[nH]c(SCc3cn(-c4cccc(Cl)c4Cl)nn3)nc2c1
[1]
  IC50: 69.8 µM
[2]
  IC50: 90.5 µM
[3]
  IC50: 85 µM

## Cc1c(NC(=O)Cn2cc(CSc3nc4cc(OC(F)F)ccc4[nH]3)nn2)cccc1[N+](=O)[O-]
[1]
  IC50: 66.2 µM
[2]
  IC50: 103 µM
[3]
  IC50: 62.2 µM

## Fc1ccc(-n2cc(CSc3nc4cc(OC(F)F)ccc4[nH]3)nn2)cc1F
[1]
  IC50: 65.2 µM
[2]
  IC50: 56.8 µM
[3]
  IC50: 56.1 µM

## O=C(Cn1cc(CSc2nc3cc(OC(F)F)ccc3[nH]2)nn1)Nc1cccc(Cl)c1
[1]
  IC50: 136 µM
[2]
  IC50: 135 µM
[3]
  IC50: 115 µM

## O=[N+]([O-])c1ccc(-n2cc(CSc3nc4cc(OC(F)F)ccc4[nH]3)nn2)cc1
[1]
  IC50: 59.2 µM
[2]
  IC50: 203 µM
[3]
  IC50: 100 µM
[4]
  Kd: 79.2 µM
[5]
  Kd: 87.3 µM
[6]
  Kd: 191 µM
[7]
  Activity: 2.9 nm
[8]
  Activity: 0.6 nm
[9]
  Activity: 1.6 nm
[10]
  Activity: 31.4%
[11]
  Activity: 11.7%
[12]
  Activity: 15.9%
[13]
  ΔTm: 9 °C
[14]
  ΔTm: -5 °C
[15]
  ΔTm: 0 °C
[16]
  Activity: Active
[17]
  Activity: Active
[18]
  Activity: Active
[19]
  Activity: Active
[20]
  Activity: Active
[21]
  Activity: Active

## C[n+]1ccc(-c2c3nc(c(-c4cc[n+](C)cc4)c4ccc([nH]4)c(-c4cc[n+](C)cc4)c4ccc([nH]4)c(-c4cc[n+](C)cc4)c4nc2C=C4)C=C3)cc1 [TMPYP4]
[1]
  IC50: 94.8 µM
[2]
  IC50: 77 µM
[3]
  IC50: 61.4 µM
[22]
  viability at 91 µM: 75.2%
[23]
  Activity: 2.38%
[24]
  Activity: 18.01%
[25]
  Activity: 4.41%
[26]
  Activity: 24.8%
[27]
  viability at 98 µM: 51.3%
[28]
  Activity: 14.36%
[29]
  Activity: 33.44%
[30]
  Activity: 0.9%
[31]
  Activity: 48.7%
[32]
  viability at 48 h, 60 µM: 81.9%
[33]
  Activity: 0.95%
[34]
  Activity: 13.72%
[35]
  Activity: 3.39%
[36]
  Activity: 18.06%
[37]
  viability at 48 h, 63 µM: 75.2%
[38]
  Activity: 1.31%
[39]
  Activity: 18.87%
[40]
  Activity: 4.66%
[41]
  Activity: 24.84%
[42]
  Activity: Non-Toxic
